{"source": "patent US7604990B2", "about": "“Methods of regulating differentiation in stem cells” (ES Cell International Pte Ltd., priority 2002, dated 2009)", "test_system": "hES cells", "experiment": "Direct observation of hES colonies in serum-depleted medium (Example 4)", "type": "cell-based, human", "protocol": "(A) hES cells grown with feeder, before the depletion in serum. (B) hES cells grown without serum after 8 days (B, C) and 12 days (D, E), in absence (B, D) or presence of S1P (C, E, 10 μM).\nFor direct observation, hES-3 cells were coated into 12-well plates (3 colonies per well), with or without mouse embryonic feeders (MEFs). The day following the plating, cells were incubated with the different agents in serum free medium containing insulin, transferring and selenium. Media was changed the 2nd day and then every 2 days."}
{"smiles": "CCCCCCCCCCCCC/C=C/[C@@H](O)[C@@H](N)COP(=O)(O)O", "note": "[S1P, Sphingosine-1-phosphate]", "values": [{"measurement": "growth/differentiation of hES colonies on MEFs", "setting": "S1P 10 μM 8 days, LPA up to 50 μM 12 days", "result": "more compact and less differentiated"}, {"measurement": "effect on cell differentiation, hES cells grown without MEFs", "setting": "without MEFs, n=3", "result": "inhibitory effect"}]}
